Two compounds from patent US10561672B2, “Stable fixed dose pharmaceutical composition comprising mometasone and olopatadine” (GLENMARK SPECIALTY S.A., priority 2013, dated 2020) can be followed below.

Data set [1] in a line: Clinical trial, single-dose cross-over: pharmacokinetics of olopatadine (Example 5). The class given is in vivo. The following applies: single dose nasal spray, human subjects. From the text: (§1) The clinical trial was a randomized, single-center, single-dose, open-label, three-period, six-sequence, cross-over study to evaluate three treatments administered as a nasal spray. […] The study consisted of a screening visit, 3 single-dose treatment periods with washout periods of 7 to 14 days between dosing in each treatment period, an early withdrawal visit if applicable, and a follow-up telephone call (or visit) 1 to 7 days after completing the third treatment period. A total of 30 subjects were randomized to 1 of 6 treatment sequences and received at least 1 dose of study drug. All 30 subjects were included in the safety analysis set and the pharmacokinetic subset. All but 2 subjects completed the study per protocol.

Data set [2] in a line: Clinical trial, single-dose cross-over: pharmacokinetics of mometasone furoate (Example 6). The class given is in vivo. Conditions: single dose nasal spray, human subjects.
From the text: as §1, with “administered by” for “administered as a”

Regarding `CN(C)CC/C=C1/c2ccccc2COc2ccc(CC(=O)O)cc21` [olopatadine], the “Quantifiable concentrations observed until the last time point” value in data set [1] worked out at 48 h.
Turning to `C[C@@H]1C[C@H]2[C@@H]3CCC4=CC(=O)C=C[C@]4(C)[C@@]3(Cl)[C@@H](O)C[C@]2(C)[C@@]1(OC(=O)c1ccco1)C(=O)CCl` [mometasone furoate], the “Quantifiable concentrations observed until the last time point” value in data set [2] is 72 h.
